The values that follow come from patent US20240150321A1, “PYRAZOLYLSULFONAMIDE COMPOUNDS AND THEIR USE IN THERAPY” (HOTSPOT THERAPEUTICS, INC., priority 2022, published 2024).

Test [1] deals with NF-kB reporter in Jurkat cells. Description: NF-kB reporter assay in Jurkat cells stimulated with aCD3/aCD28/PMA. The test is classed as cell-based. To be noted: Homo sapiens; Jurkat cells, 1 hr compound pre-incubation, aCD3/aCD28/PMA stimulation 4 hr, One-Glo readout; read-out: NF-kB Reporter Assay IC50. In outline: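 Jurkat cells (25,000/well, serum-free RPMI) were pre-incubated 1 h at 37° C with serially diluted compound, then stimulated 4 h with aCD3/aCD28/PMA at final […]. NF-kB reporter activity was read by One-Glo luminescence; IC50 values reported.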
In general terms: A reporter such as luciferase makes a cellular process visible.

For test [2], the target named is Avi-tagged FL MALT-1 (Homo sapiens (Human), UniProt Q9UDY8). Description: MALT-1 Fluorogenic Peptide Cleavage Assay (MALT1 inhibition assay). The test is classed as biochemical. The conditions noted are these: Ac-LRSR-AMC peptide substrate, 30 min pre-incubation, 90 min reaction at room temperature. The procedure, abridged:
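Full-length Avi-tagged human MALT-1 (40 nM working stock) pre-incubated 30 min at RT with compound in 25 mM HEPES pH 6.89, 660 mM sodium citrate, 1 mM TCEP, […], 0.05% CHAPS, 2% DMSO. Ac-LRSR-AMC added at Km (50 μM working stock) or 10×Km (280 μM working stock); 90 min at RT, AMC fluorescence (ex 342/em 441 nm), IC50 from % inhibition curves.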

Avi-tagged FL MALT-1, sequence (Q9UDY8 whole entry): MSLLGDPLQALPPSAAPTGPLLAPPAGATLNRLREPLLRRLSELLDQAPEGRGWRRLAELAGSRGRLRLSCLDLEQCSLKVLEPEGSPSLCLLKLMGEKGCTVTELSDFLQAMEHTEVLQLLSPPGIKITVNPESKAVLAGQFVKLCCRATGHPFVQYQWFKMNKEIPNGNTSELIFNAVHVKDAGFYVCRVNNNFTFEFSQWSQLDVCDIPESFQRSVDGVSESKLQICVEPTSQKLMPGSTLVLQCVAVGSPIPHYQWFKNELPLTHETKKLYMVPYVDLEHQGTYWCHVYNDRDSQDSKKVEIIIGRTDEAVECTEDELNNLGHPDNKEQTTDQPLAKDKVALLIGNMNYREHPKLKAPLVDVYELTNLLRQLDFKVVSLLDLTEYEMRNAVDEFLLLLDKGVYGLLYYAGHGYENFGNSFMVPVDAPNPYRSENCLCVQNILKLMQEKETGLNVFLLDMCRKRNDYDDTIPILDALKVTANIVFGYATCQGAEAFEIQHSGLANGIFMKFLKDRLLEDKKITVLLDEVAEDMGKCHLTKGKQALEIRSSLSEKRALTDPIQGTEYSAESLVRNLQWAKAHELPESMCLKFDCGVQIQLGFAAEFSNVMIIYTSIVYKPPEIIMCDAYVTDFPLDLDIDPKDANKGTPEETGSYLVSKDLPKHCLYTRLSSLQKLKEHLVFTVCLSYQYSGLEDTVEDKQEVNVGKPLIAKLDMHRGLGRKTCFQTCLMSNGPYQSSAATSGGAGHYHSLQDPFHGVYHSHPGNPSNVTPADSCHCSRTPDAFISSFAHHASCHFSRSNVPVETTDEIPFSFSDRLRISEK

As usually defined, the IC50 is the concentration that gives 50% inhibition. As for `Cn1ncc2cccc(NS(=O)(=O)c3cnn(-c4cc(C5CCOC5)ccn4)c3)c21` (stereo not shown) [Compound I-118, N-(1-methyl-1H-indazol-7-yl)-1-(4-(tetrahydrofuran-3-yl)pyridin-2-yl)-1H-pyrazole-4-sulfonamide], the concentration for half-maximal inhibition (IC50) in test [1] was less than 400 nM; in test [2], more than 2500 nM.

Turning to `Cn1ncc2cccc(NS(=O)(=O)c3cnn(-c4cc(C5=CCOCC5)ccn4)c3)c21` [Compound I-119, 1-(4-(3,6-Dihydro-2H-Pyran-4-yl)Pyridin-2-yl)-N-(1-Methyl-1H-Indazol-7-yl)-1H-Pyrazole-4-Sulfonamide], the results for the IC50 in test [1] and in test [2] were less than 400 nM and more than 2500 nM, respectively.

As for `Cn1ncc2cncc(NS(=O)(=O)c3cnn(-c4cc(C(C)(F)F)ccn4)c3)c21` [Compound I-120, 1-(4-(1,1-Difluoroethyl)Pyridin-2-yl)-N-(1-Methyl-1H-Pyrazolo[4,3-C]Pyridin-7-yl)-1H-Pyrazole-4-Sulfonamide], the IC50 in test [1] and in test [2] was more than 2500 nM in each case.

Turning to `Cn1ncc2cccc(NS(=O)(=O)c3cnn(-c4cc(C(F)(F)F)c(Cl)cn4)c3)c21` [Compound I-121, 1-(5-Chloro-4-(Trifluoromethyl)Pyridin-2-yl)-N-(1-Methyl-1H-Indazol-7-yl)-1H-Pyrazole-4-Sulfonamide], the IC50 was less than 400 nM in test [1] and 400 to 1000 nM in test [2].

In the case of `Cn1ncc2cccc(NS(=O)(=O)c3cnn(-c4cc(C(F)(F)F)c(F)cn4)c3)c21` [Compound I-122, 1-(5-fluoro-4-(trifluoromethyl)pyridin-2-yl)-N-(1-methyl-1H-indazol-7-yl)-1H-pyrazole-4-sulfonamide], the IC50 was less than 400 nM in test [1] and 400 to 1000 nM in test [2].

On to `Cn1ncc2cccc(NS(=O)(=O)c3cnn(-c4cc(C5CCOCC5)ccn4)c3)c21` [Compound I-123, N-(1-methyl-1H-indazol-7-yl)-1-(4-(tetrahydro-2H-pyran-4-yl)pyridin-2-yl)-1H-pyrazole-4-sulfonamide], for which the IC50 is less than 400 nM in test [1] and more than 2500 nM in test [2].

As for `COc1ncc2cnn(C)c2c1NS(=O)(=O)c1cnn(-c2cc(C3(F)COC3)ccn2)c1` [Compound I-124, 1-(4-(3-fluorooxetan-3-yl)pyridin-2-yl)-N-(6-methoxy-1-methyl-1H-pyrazolo[4,3-c]pyridin-7-yl)-1H-pyrazole-4-sulfonamide], the IC50 in test [1] is less than 400 nM; in test [2], not above 400 nM.

As for `COc1ncc2cnn(C)c2c1NS(=O)(=O)c1cnn(-c2cc(C3(OC)COC3)ccn2)c1` [Compound I-125, N-{6-methoxy-1-methylpyrazolo [4,3-c]pyridin-7-yl}-1-[4-(3-methoxyoxetan-3-yl)pyridin-2-yl]pyrazole-4-sulfonamide], the IC50 in test [1] was less than 400 nM; in test [2] it was not above 400 nM.

Regarding `COc1ncc2cnn(C)c2c1NS(=O)(=O)c1cnn(-c2cc(C(F)F)ccn2)c1` [Compound I-126, 1-[4-(difluoromethyl)pyridin-2-yl]-N-{6-methoxy-1-methylpyrazolo[4,3-c]pyridin-7-yl}pyrazole-4-sulfonamide], the IC50 in test [1] was less than 400 nM; in test [2], not above 400 nM.

As for `COc1ncc2cnn(C)c2c1NS(=O)(=O)c1cnn(-c2cc(C(C)(C)C)ccn2)c1` [Compound I-127, 1-(4-(tert-butyl)pyridin-2-yl)-N-(6-methoxy-1-methyl-1H-pyrazolo[4,3-c]pyridin-7-yl)-1H-pyrazole-4-sulfonamide], the results for the IC50 in test [1] and in test [2] were less than 400 nM and not above 400 nM, respectively.

`Cn1ncc2cccc(NS(=O)(=O)c3cnn(-c4cc(C5(O)CCOC5)ccn4)c3)c21` (stereo not shown) [Compound I-128, 1-(4-(3-hydroxytetrahydrofuran-3-yl)pyridin-2-yl)-N-(1-methyl-1H-indazol-7-yl)-1H-pyrazole-4-sulfonamide]: the IC50 in test [1] was less than 400 nM; in test [2], more than 2500 nM.
